# Data taken from publication PMC10004634 (PLOS ONE, 2023).
# Read-outs that look alike come from different tables or passages of the source.
# Assays:
# Assay in all cases: biochemical
# Parameters in all cases: KINOMEscan scanMAX competition binding, DNA-tagged kinases, qPCR read-out, percent control at 300 nM
# [1] = molecular target: T1, MST3 (Homo sapiens, UniProt Q9Y6E0)
# T1 construct: gene STK24
# [2] = molecular target: DYRK1B (Homo sapiens, UniProt Q9Y463)
# [3] = molecular target: ERBB2 (Homo sapiens, UniProt P04626)
# [4] = molecular target: CSNK1E (Homo sapiens, UniProt P49674)
# [5] = molecular target: T2, TTK (Homo sapiens, UniProt P33981)
# T2 sequence (P33981 1-857): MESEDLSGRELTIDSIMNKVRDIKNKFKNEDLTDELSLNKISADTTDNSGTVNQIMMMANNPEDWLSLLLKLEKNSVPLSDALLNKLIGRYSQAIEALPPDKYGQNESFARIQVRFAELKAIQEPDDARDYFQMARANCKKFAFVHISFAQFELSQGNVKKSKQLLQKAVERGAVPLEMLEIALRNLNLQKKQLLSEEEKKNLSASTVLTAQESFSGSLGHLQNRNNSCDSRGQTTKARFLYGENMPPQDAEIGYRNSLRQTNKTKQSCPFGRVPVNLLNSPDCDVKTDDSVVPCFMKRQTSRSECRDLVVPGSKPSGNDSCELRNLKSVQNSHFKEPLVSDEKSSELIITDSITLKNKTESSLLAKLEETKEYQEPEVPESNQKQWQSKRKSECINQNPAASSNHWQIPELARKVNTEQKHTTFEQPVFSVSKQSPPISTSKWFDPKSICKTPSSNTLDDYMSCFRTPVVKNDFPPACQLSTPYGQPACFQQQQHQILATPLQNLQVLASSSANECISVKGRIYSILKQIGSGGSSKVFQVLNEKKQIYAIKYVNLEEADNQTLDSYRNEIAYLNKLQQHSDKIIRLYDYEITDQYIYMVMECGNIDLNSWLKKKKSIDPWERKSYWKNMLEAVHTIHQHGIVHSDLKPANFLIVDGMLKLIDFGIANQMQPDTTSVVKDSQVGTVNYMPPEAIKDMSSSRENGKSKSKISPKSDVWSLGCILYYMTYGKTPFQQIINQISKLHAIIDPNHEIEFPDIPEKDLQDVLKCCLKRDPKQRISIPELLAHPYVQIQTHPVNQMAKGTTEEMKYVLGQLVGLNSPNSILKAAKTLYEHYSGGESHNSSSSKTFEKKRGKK
# [6] = molecular target: EPHA2 (Homo sapiens, UniProt P29317)
# [7] = molecular target: LIMK1 (Homo sapiens, UniProt P53667)
# [8] = molecular target: T3, LATS2 (Homo sapiens, UniProt Q9NRM7)
# T3 sequence (Q9NRM7 1-1088): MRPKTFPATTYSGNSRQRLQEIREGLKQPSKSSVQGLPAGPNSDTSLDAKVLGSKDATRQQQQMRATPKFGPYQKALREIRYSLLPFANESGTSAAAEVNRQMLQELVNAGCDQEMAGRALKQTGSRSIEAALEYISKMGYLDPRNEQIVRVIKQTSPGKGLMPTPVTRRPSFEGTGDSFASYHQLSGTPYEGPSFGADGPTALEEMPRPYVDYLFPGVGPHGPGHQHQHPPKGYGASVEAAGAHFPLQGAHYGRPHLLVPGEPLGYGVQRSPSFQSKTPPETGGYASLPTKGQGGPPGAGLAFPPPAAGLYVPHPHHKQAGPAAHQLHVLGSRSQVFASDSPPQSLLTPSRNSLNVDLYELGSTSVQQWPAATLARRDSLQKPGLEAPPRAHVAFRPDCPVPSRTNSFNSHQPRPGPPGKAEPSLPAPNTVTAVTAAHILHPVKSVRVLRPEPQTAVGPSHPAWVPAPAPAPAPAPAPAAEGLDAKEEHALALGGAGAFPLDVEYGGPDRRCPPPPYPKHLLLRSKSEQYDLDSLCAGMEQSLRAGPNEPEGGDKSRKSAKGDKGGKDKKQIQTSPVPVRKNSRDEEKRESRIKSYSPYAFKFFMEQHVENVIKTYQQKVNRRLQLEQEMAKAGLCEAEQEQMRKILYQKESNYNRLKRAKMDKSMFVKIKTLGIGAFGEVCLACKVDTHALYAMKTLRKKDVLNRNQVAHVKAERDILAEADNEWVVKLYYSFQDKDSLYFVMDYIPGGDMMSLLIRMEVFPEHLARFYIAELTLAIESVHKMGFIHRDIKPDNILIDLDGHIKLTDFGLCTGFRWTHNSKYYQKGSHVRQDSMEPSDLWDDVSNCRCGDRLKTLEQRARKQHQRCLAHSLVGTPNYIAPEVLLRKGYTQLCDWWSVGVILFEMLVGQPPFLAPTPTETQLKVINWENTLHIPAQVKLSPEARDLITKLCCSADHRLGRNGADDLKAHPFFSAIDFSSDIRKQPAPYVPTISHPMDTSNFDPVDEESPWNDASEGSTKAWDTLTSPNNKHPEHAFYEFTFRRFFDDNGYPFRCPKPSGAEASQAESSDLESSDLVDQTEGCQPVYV
# [9] = read-out: Percent control / Acalabrutinib
# [10] = read-out: Percent control / Ibrutinib
# [11] = read-out: Percent control / Tirabrutinib
# [12] = read-out: Percent control / Zanubrutinib
# Chain of ERBB2 (P04626 whole entry): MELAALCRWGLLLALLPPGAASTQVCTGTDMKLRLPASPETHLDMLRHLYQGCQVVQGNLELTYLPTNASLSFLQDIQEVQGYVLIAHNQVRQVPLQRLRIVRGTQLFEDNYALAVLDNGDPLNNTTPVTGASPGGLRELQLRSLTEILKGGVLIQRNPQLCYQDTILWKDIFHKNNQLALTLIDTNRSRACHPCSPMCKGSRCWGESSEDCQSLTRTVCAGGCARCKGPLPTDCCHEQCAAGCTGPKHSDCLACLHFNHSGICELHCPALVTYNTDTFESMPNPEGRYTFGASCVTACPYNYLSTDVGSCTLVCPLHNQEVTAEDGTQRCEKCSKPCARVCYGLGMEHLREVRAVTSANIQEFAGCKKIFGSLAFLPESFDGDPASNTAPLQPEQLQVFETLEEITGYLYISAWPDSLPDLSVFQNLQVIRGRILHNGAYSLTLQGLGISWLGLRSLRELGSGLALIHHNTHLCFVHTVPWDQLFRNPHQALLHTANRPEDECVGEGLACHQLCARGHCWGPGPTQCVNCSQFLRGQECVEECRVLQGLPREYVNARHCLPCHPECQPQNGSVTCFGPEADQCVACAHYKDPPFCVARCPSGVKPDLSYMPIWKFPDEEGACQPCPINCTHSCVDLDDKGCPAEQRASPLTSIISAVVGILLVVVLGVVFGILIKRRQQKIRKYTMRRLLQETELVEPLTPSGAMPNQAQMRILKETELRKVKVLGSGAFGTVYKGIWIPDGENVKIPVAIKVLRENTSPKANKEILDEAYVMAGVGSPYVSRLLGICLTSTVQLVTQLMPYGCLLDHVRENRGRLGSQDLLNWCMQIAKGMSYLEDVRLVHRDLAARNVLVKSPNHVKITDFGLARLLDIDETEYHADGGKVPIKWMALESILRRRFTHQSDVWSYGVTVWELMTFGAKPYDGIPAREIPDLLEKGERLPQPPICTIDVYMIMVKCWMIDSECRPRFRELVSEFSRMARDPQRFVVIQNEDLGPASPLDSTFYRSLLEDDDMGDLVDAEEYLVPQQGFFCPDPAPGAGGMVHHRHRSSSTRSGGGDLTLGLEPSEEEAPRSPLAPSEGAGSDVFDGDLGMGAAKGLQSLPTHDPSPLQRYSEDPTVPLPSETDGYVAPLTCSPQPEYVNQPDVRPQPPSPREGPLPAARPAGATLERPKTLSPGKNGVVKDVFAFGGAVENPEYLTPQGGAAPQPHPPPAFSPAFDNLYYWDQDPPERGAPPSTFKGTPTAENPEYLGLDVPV
# Chain of CSNK1E (P49674 whole entry): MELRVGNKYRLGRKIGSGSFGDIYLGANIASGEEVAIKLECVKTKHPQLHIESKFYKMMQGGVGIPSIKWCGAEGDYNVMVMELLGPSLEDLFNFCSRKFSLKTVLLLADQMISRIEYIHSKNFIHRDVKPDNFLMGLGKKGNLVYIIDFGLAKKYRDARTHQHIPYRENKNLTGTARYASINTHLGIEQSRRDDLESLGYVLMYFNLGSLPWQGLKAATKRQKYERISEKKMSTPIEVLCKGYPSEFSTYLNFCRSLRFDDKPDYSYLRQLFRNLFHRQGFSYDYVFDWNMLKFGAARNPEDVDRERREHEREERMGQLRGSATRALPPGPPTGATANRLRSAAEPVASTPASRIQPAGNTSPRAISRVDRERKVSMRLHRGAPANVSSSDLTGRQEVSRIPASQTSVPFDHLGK
# Chain of DYRK1B (Q9Y463 whole entry): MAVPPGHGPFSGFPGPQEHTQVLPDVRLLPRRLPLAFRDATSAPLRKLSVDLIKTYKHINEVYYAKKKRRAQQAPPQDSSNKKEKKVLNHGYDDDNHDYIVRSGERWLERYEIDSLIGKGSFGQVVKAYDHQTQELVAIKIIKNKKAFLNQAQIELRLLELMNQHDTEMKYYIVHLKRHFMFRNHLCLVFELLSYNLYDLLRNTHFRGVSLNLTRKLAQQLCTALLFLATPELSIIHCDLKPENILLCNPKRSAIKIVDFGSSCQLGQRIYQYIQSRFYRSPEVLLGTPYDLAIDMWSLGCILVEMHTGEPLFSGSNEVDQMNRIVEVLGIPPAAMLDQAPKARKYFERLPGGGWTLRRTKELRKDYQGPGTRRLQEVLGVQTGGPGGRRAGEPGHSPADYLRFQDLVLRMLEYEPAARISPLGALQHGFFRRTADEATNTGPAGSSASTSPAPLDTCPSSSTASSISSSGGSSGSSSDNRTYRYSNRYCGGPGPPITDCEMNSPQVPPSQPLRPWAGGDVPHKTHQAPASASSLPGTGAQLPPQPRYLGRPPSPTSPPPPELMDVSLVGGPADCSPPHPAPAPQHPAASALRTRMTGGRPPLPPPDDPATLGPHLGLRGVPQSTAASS
# Chain of EPHA2 (P29317 whole entry): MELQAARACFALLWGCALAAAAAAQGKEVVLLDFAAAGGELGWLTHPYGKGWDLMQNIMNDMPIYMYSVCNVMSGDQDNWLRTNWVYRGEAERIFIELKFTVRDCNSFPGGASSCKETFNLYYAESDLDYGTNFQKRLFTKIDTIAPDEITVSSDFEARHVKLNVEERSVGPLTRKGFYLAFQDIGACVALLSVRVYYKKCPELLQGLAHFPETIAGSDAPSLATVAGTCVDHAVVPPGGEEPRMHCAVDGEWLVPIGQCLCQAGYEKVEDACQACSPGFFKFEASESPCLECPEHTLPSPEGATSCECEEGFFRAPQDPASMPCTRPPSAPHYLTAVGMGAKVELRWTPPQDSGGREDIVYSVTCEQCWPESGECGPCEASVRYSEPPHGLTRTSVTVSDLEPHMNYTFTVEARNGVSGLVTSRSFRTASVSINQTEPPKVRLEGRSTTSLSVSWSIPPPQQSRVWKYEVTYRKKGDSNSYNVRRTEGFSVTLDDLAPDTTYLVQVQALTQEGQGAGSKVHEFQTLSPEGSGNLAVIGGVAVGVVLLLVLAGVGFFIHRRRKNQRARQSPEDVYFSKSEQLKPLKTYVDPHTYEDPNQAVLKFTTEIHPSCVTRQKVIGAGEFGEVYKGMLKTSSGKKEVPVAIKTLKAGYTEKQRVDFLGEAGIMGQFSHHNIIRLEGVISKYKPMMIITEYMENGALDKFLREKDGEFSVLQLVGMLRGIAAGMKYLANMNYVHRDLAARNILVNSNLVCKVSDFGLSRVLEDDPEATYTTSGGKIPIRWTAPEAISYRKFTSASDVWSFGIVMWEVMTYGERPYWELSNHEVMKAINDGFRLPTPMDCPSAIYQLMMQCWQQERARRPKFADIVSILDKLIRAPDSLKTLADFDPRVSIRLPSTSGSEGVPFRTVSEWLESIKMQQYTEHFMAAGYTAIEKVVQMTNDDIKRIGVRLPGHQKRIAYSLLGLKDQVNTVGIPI
# Chain of LIMK1 (P53667 whole entry): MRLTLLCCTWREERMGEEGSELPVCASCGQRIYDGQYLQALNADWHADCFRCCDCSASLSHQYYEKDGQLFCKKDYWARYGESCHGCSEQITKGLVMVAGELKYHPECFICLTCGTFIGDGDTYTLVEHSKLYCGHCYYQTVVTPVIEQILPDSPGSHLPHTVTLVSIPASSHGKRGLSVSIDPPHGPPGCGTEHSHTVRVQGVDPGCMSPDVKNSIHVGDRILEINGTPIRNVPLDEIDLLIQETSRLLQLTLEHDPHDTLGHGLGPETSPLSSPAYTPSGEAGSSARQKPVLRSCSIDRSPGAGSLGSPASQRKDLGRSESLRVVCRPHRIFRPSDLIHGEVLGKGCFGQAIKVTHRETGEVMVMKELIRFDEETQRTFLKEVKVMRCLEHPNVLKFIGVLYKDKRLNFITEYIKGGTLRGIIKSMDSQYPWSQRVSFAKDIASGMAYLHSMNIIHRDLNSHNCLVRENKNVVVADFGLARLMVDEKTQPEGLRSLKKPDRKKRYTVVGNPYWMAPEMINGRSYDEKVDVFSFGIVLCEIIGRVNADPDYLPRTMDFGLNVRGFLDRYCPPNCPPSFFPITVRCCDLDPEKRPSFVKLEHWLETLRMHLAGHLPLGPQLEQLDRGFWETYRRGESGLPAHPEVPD
# T1 sequence (Q9Y6E0 whole entry): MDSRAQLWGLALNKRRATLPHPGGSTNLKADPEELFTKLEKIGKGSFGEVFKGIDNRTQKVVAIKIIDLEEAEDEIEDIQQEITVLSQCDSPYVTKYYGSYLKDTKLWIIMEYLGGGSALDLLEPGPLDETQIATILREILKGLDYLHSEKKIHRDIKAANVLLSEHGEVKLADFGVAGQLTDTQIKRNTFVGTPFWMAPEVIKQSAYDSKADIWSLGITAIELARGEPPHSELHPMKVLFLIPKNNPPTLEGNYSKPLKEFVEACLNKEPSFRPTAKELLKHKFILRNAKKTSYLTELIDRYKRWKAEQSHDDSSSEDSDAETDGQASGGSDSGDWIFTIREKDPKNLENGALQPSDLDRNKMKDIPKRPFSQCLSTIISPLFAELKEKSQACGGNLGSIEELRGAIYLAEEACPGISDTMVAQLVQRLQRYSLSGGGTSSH
compound,measurement,setting,value
CC#CC(=O)N1CCC[C@H]1c1nc(-c2ccc(C(=O)Nc3ccccn3)cc2)c2c(N)nccn12 [Acalabrutinib],remaining binding at 0.3 µM,[1]; [9],94%
same,remaining binding at 0.3 µM,[2]; [9],72%
same,remaining binding at 0.3 µM,[3]; [9],11%
same,remaining binding at 0.3 µM,[4]; [9],89%
same,remaining binding at 0.3 µM,[5]; [9],64%
same,remaining binding at 0.3 µM,[6]; [9],94%
same,remaining binding at 0.3 µM,[7]; [9],47%
same,remaining binding at 0.3 µM,[8]; [9],90%
C=CC(=O)N1CCC[C@@H](n2nc(-c3ccc(Oc4ccccc4)cc3)c3c(N)ncnc32)C1 [Ibrutinib],remaining binding at 0.3 µM,[1]; [10],90%
same,remaining binding at 0.3 µM,[4]; [10],79%
same,remaining binding at 0.3 µM,[5]; [10],93%
same,remaining binding at 0.3 µM,[7]; [10],57%
CC#CC(=O)N1CC[C@@H](n2c(=O)n(-c3ccc(Oc4ccccc4)cc3)c3c(N)ncnc32)C1 [Tirabrutinib],remaining binding at 0.3 µM,[2]; [11],70%
same,remaining binding at 0.3 µM,[3]; [11],36%
same,remaining binding at 0.3 µM,[4]; [11],95%
same,remaining binding at 0.3 µM,[6]; [11],93%
same,remaining binding at 0.3 µM,[8]; [11],92%
C=CC(=O)N1CCC([C@@H]2CCNc3c(C(N)=O)c(-c4ccc(Oc5ccccc5)cc4)nn32)CC1 [Zanubrutinib],remaining binding at 0.3 µM,[1]; [12],91%
same,remaining binding at 0.3 µM,[2]; [12],71%
same,remaining binding at 0.3 µM,[3]; [12],16%
same,remaining binding at 0.3 µM,[5]; [12],94%
same,remaining binding at 0.3 µM,[6]; [12],67%
same,remaining binding at 0.3 µM,[7]; [12],100%
same,remaining binding at 0.3 µM,[8]; [12],82%
